# Assays:
# Format in all cases: ADME, organism-based
# [1] = system: Plasma; test: Steady state trough plasma concentration in chronic polyarthritis patient (6 patients) assessed as 4',5-dihydroxy diclofenac at 75 mg, po bid administered for 6 to 10 months by capillary column gas chromatographic method; conditions: human, in vivo
# [2] = system: Plasma; test: Steady state trough plasma concentration in chronic polyarthritis patient (6 patients) assessed as 3'-hydroxy diclofenac at 75 mg, po bid administered for 6 to 10 months by capillary column gas chromatographic method; conditions: human, in vivo
# [3] = system: Plasma; test: Steady state trough plasma concentration in chronic polyarthritis patient (6 patients) at 75 mg, po bid administered for 6 to 10 months by capillary column gas chromatographic method; conditions: human, in vivo
# [4] = system: Plasma; test: Steady state trough plasma concentration in chronic polyarthritis patient (6 patients) assessed as 4'-hydroxy diclofenac at 75 mg, po bid administered for 6 to 10 months by capillary column gas chromatographic method; conditions: human, in vivo
# [5] = system: Plasma; test: Steady state trough plasma concentration in chronic polyarthritis patient (6 patients) assessed as 5-hydroxy diclofenac at 75 mg, po bid administered for 6 to 10 months by capillary column gas chromatographic method; conditions: human, in vivo
# [6] = system: Plasma; test: Steady state trough plasma concentration in chronic polyarthritis patient (6 patients) assessed as 3'-hydroxy-4'-methoxy diclofenac at 75 mg, po bid administered for 6 to 10 months by capillary column gas chromatographic method; conditions: human, in vivo
# [7] = system: Homo sapiens; test: AUC (0 to 96 hrs) in healthy volunteer (3 volunteers) assessed as 3'-hydroxy-4'-methoxy diclofenac at 100 mg, po administered as single dose by capillary column gas chromatographic method; set-up: dose 100 mg, time < 96 hr, route oral; conditions: in vivo
# [8] = system: Homo sapiens; test: AUC (0 to 96 hrs) in healthy volunteer (3 volunteers) assessed as 3'-hydroxy diclofenac at 100 mg, po administered as single dose by capillary column gas chromatographic method; set-up: dose 100 mg, time < 96 hr, route oral; conditions: in vivo
# [9] = system: Homo sapiens; test: Cmax in healthy volunteer (3 volunteers) assessed as 4'-hydroxy diclofenac at 100 mg, po administered as single dose by capillary column gas chromatographic method; set-up: dose 100 mg, route oral; conditions: in vivo
# [10] = system: Homo sapiens; test: AUC (0 to 96 hrs) in healthy volunteer (3 volunteers) assessed as 4',5-dihydroxy diclofenac at 100 mg, po administered as single dose by capillary column gas chromatographic method; set-up: time < 96 hr, dose 100 mg, route oral; conditions: in vivo
# [11] = Total drug excretion in healthy volunteer (3 volunteers) urine assessed as 5-hydroxy diclofenac at 100 mg, po administered as single dose measured over 96 hrs by capillary column gas chromatographic method; conditions: human, in vivo
# [12] = system: Homo sapiens; test: Cmax in healthy volunteer (3 volunteers) assessed as 4',5-dihydroxy diclofenac at 100 mg, po administered as single dose by capillary column gas chromatographic method; set-up: dose 100 mg, route oral; conditions: in vivo
# [13] = system: Homo sapiens; test: Apparent elimination half life in healthy volunteer (3 volunteers) assessed as 4',5-dihydroxy diclofenac at 100 mg, po administered as single dose by capillary column gas chromatographic method; conditions: in vivo
# [14] = system: Homo sapiens; test: AUC (0 to infinity) in healthy volunteer (3 volunteers) assessed as 4',5-dihydroxy diclofenac at 100 mg, po administered as single dose by capillary column gas chromatographic method; set-up: dose 100 mg, time infinity, route oral; conditions: in vivo
# [15] = system: Homo sapiens; test: Tmax in healthy volunteer (3 volunteers) assessed as 5-hydroxy diclofenac at 100 mg, po administered as single dose by capillary column gas chromatographic method; conditions: in vivo
# [16] = system: Homo sapiens; test: Tmax in healthy volunteer (3 volunteers) assessed as 4'-hydroxy diclofenac at 100 mg, po administered as single dose by capillary column gas chromatographic method; conditions: in vivo
# [17] = system: Homo sapiens; test: Apparent elimination half life in healthy volunteer (3 volunteers) assessed as 5-hydroxy diclofenac at 100 mg, po administered as single dose by capillary column gas chromatographic method; conditions: in vivo
# [18] = system: Homo sapiens; test: Tmax in healthy volunteer (3 volunteers) assessed as 4',5-dihydroxy diclofenac at 100 mg, po administered as single dose by capillary column gas chromatographic method; conditions: in vivo
# [19] = system: Homo sapiens; test: Apparent elimination half life in healthy volunteer (3 volunteers) assessed as 3'-hydroxy diclofenac at 100 mg, po administered as single dose by capillary column gas chromatographic method; conditions: in vivo
# [20] = system: Homo sapiens; test: Cmax in healthy volunteer (3 volunteers) assessed as 5-hydroxy diclofenac at 100 mg, po administered as single dose by capillary column gas chromatographic method; set-up: dose 100 mg, route oral; conditions: in vivo
# [21] = system: Homo sapiens; test: AUC (0 to 96 hrs) in healthy volunteer (3 volunteers) assessed as 5-hydroxy diclofenac at 100 mg, po administered as single dose by capillary column gas chromatographic method; set-up: dose 100 mg, time < 96 hr, route oral; conditions: in vivo
# [22] = Total drug excretion in healthy volunteer (3 volunteers) urine assessed as 4'-hydroxy diclofenac at 100 mg, po administered as single dose measured over 96 hrs by capillary column gas chromatographic method; conditions: human, in vivo
# [23] = system: Homo sapiens; test: Tmax in healthy volunteer (3 volunteers) assessed as 3'-hydroxy-4'-methoxy diclofenac at 100 mg, po administered as single dose by capillary column gas chromatographic method; conditions: in vivo
# [24] = system: Homo sapiens; test: AUC (0 to infinity) in healthy volunteer (3 volunteers) assessed as 3'-hydroxy diclofenac at 100 mg, po administered as single dose by capillary column gas chromatographic method; set-up: dose 100 mg, time infinity, route oral; conditions: in vivo
# [25] = system: Homo sapiens; test: Cmax in healthy volunteer (3 volunteers) assessed as 3'-hydroxy-4'-methoxy diclofenac at 100 mg, po administered as single dose by capillary column gas chromatographic method; set-up: dose 100 mg, route oral; conditions: in vivo
# [26] = system: Homo sapiens; test: AUC (0 to 96 hrs) in healthy volunteer (3 volunteers) at 100 mg, po administered as single dose by capillary column gas chromatographic method; set-up: time < 96 hr, dose 100 mg, route oral; conditions: in vivo
# [27] = Total drug excretion in healthy volunteer (3 volunteers) urine assessed as 4',5-dihydroxy diclofenac at 100 mg, po administered as single dose measured over 96 hrs by capillary column gas chromatographic method; conditions: human, in vivo
# [28] = system: Homo sapiens; test: Cmax in healthy volunteer (3 volunteers) at 100 mg, po administered as single dose by capillary column gas chromatographic method; set-up: dose 100 mg, route oral; conditions: in vivo
# [29] = Apparent elimination half life in healthy volunteer (3 volunteers) at 100 mg, po administered as single dose by capillary column gas chromatographic method; conditions: human, in vivo, read-out: betat1/2(app) (converted)
# [30] = Total drug excretion in healthy volunteer (3 volunteers) urine assessed as 3'-hydroxy diclofenac at 100 mg, po administered as single dose measured over 96 hrs by capillary column gas chromatographic method; conditions: human, in vivo
# [31] = system: Homo sapiens; test: AUC (0 to infinity) in healthy volunteer (3 volunteers) at 100 mg, po administered as single dose by capillary column gas chromatographic method; set-up: dose 100 mg, time infinity, route oral; conditions: in vivo
# [32] = system: Homo sapiens; test: Tmax in healthy volunteer (3 volunteers) assessed as 3'-hydroxy diclofenac at 100 mg, po administered as single dose by capillary column gas chromatographic method; conditions: in vivo
# [33] = system: Homo sapiens; test: AUC (0 to 72 hrs) in healthy volunteer assessed as 3'-hydroxy-4'-methoxy diclofenac at 100 mg, po administered as single dose by capillary column gas chromatographic method; set-up: time < 72 hr, dose 100 mg, route oral; conditions: in vivo
# [34] = system: Homo sapiens; test: Apparent elimination half life in healthy volunteer (3 volunteers) assessed as 4'-hydroxy diclofenac at 100 mg, po administered as single dose by capillary column gas chromatographic method; conditions: in vivo
# [35] = system: Homo sapiens; test: AUC (0 to infinity) in healthy volunteer (3 volunteers) assessed as 5-hydroxy diclofenac at 100 mg, po administered as single dose by capillary column gas chromatographic method; set-up: dose 100 mg, route oral, time infinity; conditions: in vivo
# [36] = Tmax in healthy volunteer (3 volunteers) at 100 mg, po administered as single dose by capillary column gas chromatographic method; conditions: human, in vivo
# [37] = system: Homo sapiens; test: Apparent elimination half life in healthy volunteer (3 volunteers) assessed as 3'-hydroxy-4'-methoxy diclofenac at 100 mg, po administered as single dose by capillary column gas chromatographic method; conditions: in vivo
# [38] = Total drug excretion in healthy volunteer (3 volunteers) urine at 100 mg, po administered as single dose measured over 96 hrs by capillary column gas chromatographic method; conditions: human, in vivo
# [39] = Total drug excretion in healthy volunteer (3 volunteers) urine assessed as 3'-hydroxy-4'-methoxy diclofenac at 100 mg, po administered as single dose measured over 96 hrs by capillary column gas chromatographic method; conditions: human, in vivo
# [40] = system: Homo sapiens; test: AUC (0 to infinity) in healthy volunteer (2 volunteers) assessed as 3'-hydroxy-4'-methoxy diclofenac at 100 mg, po administered as single dose by capillary column gas chromatographic method; set-up: dose 100 mg, route oral, time infinity; conditions: in vivo
# [41] = system: Homo sapiens; test: Cmax in healthy volunteer (3 volunteers) assessed as 3'-hydroxy diclofenac at 100 mg, po administered as single dose by capillary column gas chromatographic method; set-up: dose 100 mg, route oral; conditions: in vivo
# [42] = system: Homo sapiens; test: AUC (0 to 96 hrs) in healthy volunteer (3 volunteers) assessed as 4'-hydroxy diclofenac at 100 mg, po administered as single dose by capillary column gas chromatographic method; set-up: time < 96 hr, dose 100 mg, route oral; conditions: in vivo
# [43] = system: Homo sapiens; test: AUC (0 to infinity) in healthy volunteer (3 volunteers) assessed as 4'-hydroxy diclofenac at 100 mg, po administered as single dose by capillary column gas chromatographic method; set-up: dose 100 mg, route oral, time infinity; conditions: in vivo
smiles,measurement,setting,value
Cc1nnc(SCC2=C(C(=O)O)N3C(=O)[C@@H](NC(=O)Cn4cc(Cl)c(=O)c(Cl)c4)[C@H]3SC2)s1 [CEFAZEDONE],Cminss,[1],0.252 nmol/g
same,Cminss,[2],0.302 nmol/g
same,Cminss,[3],0.565 nmol/g
same,Cminss,[4],0.438 nmol/g
same,Cminss,[5],0.234 nmol/g
same,Cminss,[6],3.687 nmol/g
O=C([O-])Cc1ccccc1Nc1c(Cl)cccc1Cl.[Na+] [DICLOFENAC SODIUM],AUC,[7],35.22 nmol·h/g
same,AUC,[8],1.71 nmol·h/g
same,Cmax,[9],1.19 nmol/g
same,AUC,[10],1.46 nmol·h/g
same,Drug excretion,[11],4.66 %ID
same,Cmax,[12],0.44 nmol/g
same,betat1/2(app),[13],2.6 h
same,AUC,[14],1.46 nmol·h/g
same,Tmax,[15],19.8 min
same,Tmax,[16],19.8 min
same,betat1/2(app),[17],1 h
same,Tmax,[18],40.2 min
same,betat1/2(app),[19],1.1 h
same,Cmax,[20],0.45 nmol/g
same,AUC,[21],0.58 nmol·h/g
same,Drug excretion,[22],9.92 %ID
same,Tmax,[23],720 min
same,AUC,[24],1.71 nmol·h/g
same,Cmax,[25],0.49 nmol/g
same,AUC,[26],6.05 nmol·h/g
same,Drug excretion,[27],5.86 %ID
same,Cmax,[28],9.73 nmol/g
same,half-life,[29],60 min
same,Drug excretion,[30],2.79 %ID
same,AUC,[31],6.05 nmol·h/g
same,Tmax,[32],19.8 min
same,AUC,[33],46.09 nmol·h/g
same,betat1/2(app),[34],2 h
same,AUC,[35],0.58 nmol·h/g
same,Tmax,[36],19.8 min
same,betat1/2(app),[37],78 h
same,Drug excretion,[38],4.45 %ID
same,Drug excretion,[39],1.3 %ID
same,AUC,[40],61.82 nmol·h/g
same,Cmax,[41],0.36 nmol/g
same,AUC,[42],2.43 nmol·h/g
same,AUC,[43],2.43 nmol·h/g
